Data published in patent US20240299553A1, “INDOCARBOCYANINE LIPID DERIVATIVES FOR IN VIVO CARGO DELIVERY” (priority 2021, published 2024).

Tests used:
[1] = tested on: syngeneic intracranial GL261 glioma; experiment: Confocal microscopy of brain slices of GL261 glioma mice after i.v. dual-labeled liposomes; format: in vivo; details: 48 h post-injection, EPC/DSPE-PEG2000 liposomes, 0.2% DiI and 0.2% Cy5-DSPE
Protocol: (§1) 4T1 cell line was purchased from the ATCC and verified using a sequencing core. GL261 cells were obtained from the National Cancer Institute (NCI), and CT2A cells were a gift from Dr. Tom Seyfried (Boston College). LY2 cells were from Dr. Sana Karam, University of Colorado Anschutz Medical campus. Cells were grown at 37° C. in RPMI 1640 medium containing 10% heat-inactivated fetal bovine serum, 10 mM HEPES, 100 U/ml penicillin, and […] streptomycin (all from Corning Inc. New York, NY, USA). BALB/c mice were bred in-house. Mice of 8-10 weeks of age (females) were implanted with 0.5×10^6 cells into the mammary fat pad (4T1) or subcutaneously in the jaw region (LY2) and used for experiments 1 week later when tumors reached ˜200-300 mm^3. […]
Nikon Eclipse AR1HD inverted confocal microscope with 405 nm, 488 nm, 561 nm, and 640 nm excitation lasers and corresponding emission filters was used. […] For quantification, multiple random image areas from different slices of the tumor (both periphery and center) were acquired at 512×512 resolution. Images were quantified with Fiji using customized macros. Briefly, 8-bit gray image stacks were thresholded for fluorescence in the Cy3 and Cy5 channels and the percentages of binary (positive) areas were calculated using the “Measure” function. […]

[2] = tested on: 4T1 tumor cells and F4/80+ tumor-associated macrophages; experiment: Flow cytometry of 4T1 tumor single-cell suspension after i.v. labeled liposomes; format: in vivo, mice; details: 72 h after a single i.v. injection; liposomes labeled with 0.2% dye
Protocol: as §1, with “mm^3. For brain tumors, C57BL/6 mice (6-8 weeks old) were implanted with a total 1×10^5 GL261 or CT-2A cells per animal using an established protocol.” for “mm^3.”
A single-cell suspension of tumor tissue was prepared for flow cytometry analysis, as previously described. […] After incubation on ice for 20 minutes and washing, cells were analyzed for staining using the Guava EasyCyte HT flow cytometer (Merck KGaA). Cells were resuspended at ˜0.5 million/ml, and 20,000 events were detected. Dead cells and fragments were excluded with FSC/SSC dot plot, and the percentage of Cy5+ cells was analyzed with FlowJo software Version 10.6 (FlowJo, LLC). […]

[3] = Incubation of liposomes in liver homogenates, fluorescence ratio and TLC; format: in vitro ADME, BALB/c mice; details: 24 h and 48 h incubation
Protocol: Liposomes were incubated at 2 mM in 80% mouse serum, PBS or 1% Tween/PBS for different times at 37° C. Following incubation, the samples were dotted on a nitrocellulose membrane and scanned at Cy3 and Cy5 wavelengths. Alternatively, to measure the release in serum, the samples were diluted after incubation 10-fold in PBS and ultracentrifuged at 80,000 rpm for 30 min, 4° C. using TLA-100.3 rotor of Beckman Optima ultracentrifuge. The supernatant in serum, liposomes in whole serum, and liposomes in PBS were dotted and scanned at Cy3 and Cy5 wavelengths with a Bio-Rad camera imager using Cy3 and Cy5 filters. The mean fluorescence of the dots was determined and used to calculate the percentage of release in serum. To measure the effect of tissue on DiI/Cy5 fluorescence ratio, livers from BALB/c mice were homogenized for 5 min in PBS (1:2 weight: volume ratio) using BioSpec Mini BeadBeater-16 tissue homogenizer with 1-2 zirconium beads added per tube. […]
For extraction using a modified Bligh-Dyer method, 50-100 mg tissue was homogenized as described above, 10 parts of chloroform/methanol (2:1) were added to the homogenate (considering that tissue weight is 1 part), and the samples were mixed at 1400 rpm for 2 h at room temperature on Eppendorf Thermomixer. […] The percentage of the injected DiI and Cy5 in the extract was calculated from the standard curve and divided by tissue weight. […]

## CCCCCCCCCCCCCCCCCC(=O)OC[C@H](COP(=O)(O)OCCNC(=O)CCCCCN1C(=CC=CC=CC2=[N+](C)c3ccccc3C2(C)C)C(C)(C)c2ccccc21)OC(=O)CCCCCCCCCCCCCCCCC [Cy5-DSPE]
[1]
  accumulation and spreading in glioma: almost complete absence
[2]
  accumulation in cells in the tumor: minimal accumulation
[3]
  TLC of extracts of liver homogenates: appearance of degradation products
